We go through 1 compound from patent publication US12097204B2, “Solid pharmaceutical composition containing 1,3,5-triazine derivative or salt thereof” (CHIA TAI TIANQING PHARMACEUTICAL GROUP CO., LTD., priority 2018, dated 2024).

This data set in a line: Solubility of the compound of formula I. In kind it is physicochemical.

Take `CC(C)(C)ONc1nc(Nc2ccnc(C(F)(F)F)c2)nc(-c2cccc(C(F)(F)F)n2)n1` [compound of formula I, 4-(tert-butoxyamino)-6-(6-(trifluoromethyl)pyridin-2-yl)-N-(2-(trifluoromethyl)pyridin-4-yl)-1,3,5-triazin-2-amine]: the “Solubility in either acidic or basic condition” value (acidic or basic condition) was “poor solubility”. For the same compound, the Solubility in water result (water) is listed as “hardly soluble”.
